# Several values for one entry are separate records, joined by “and”; a condition that tells them apart may be missing. Equal entries are not always repeated.
# Key:
# Experiment in all cases: FP assay with Cy5-labelled p62 LIR tracer (protein titration and tracer displacement)
# Conditions in all cases: replicates, listed as TH152
# GABARAPL2 = GABARAPL2 (Homo sapiens, UniProt P60520)
# GABARAPL1 = GABARAPL1 (Homo sapiens, UniProt Q9H0R8); assay type: binding
# LC3C = LC3C (Homo sapiens, UniProt Q9BXW4); assay type: binding
# GABARAP = GABARAP (Homo sapiens, UniProt O95166); assay type: binding
# Chain of GABARAP (O95166 1-116): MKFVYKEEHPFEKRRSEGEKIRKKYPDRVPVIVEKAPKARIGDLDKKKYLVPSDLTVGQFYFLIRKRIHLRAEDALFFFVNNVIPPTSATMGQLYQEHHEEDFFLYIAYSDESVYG
# Chain of GABARAPL2 (P60520 whole entry): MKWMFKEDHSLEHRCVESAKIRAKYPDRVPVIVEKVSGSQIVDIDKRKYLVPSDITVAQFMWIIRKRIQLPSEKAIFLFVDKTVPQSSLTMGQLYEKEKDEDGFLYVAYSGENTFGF
# Chain of LC3C (Q9BXW4 1-126): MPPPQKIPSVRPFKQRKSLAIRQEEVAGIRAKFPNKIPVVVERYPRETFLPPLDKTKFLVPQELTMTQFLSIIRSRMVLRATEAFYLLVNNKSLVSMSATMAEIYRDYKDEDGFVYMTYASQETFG
# Chain of GABARAPL1 (Q9H0R8 whole entry): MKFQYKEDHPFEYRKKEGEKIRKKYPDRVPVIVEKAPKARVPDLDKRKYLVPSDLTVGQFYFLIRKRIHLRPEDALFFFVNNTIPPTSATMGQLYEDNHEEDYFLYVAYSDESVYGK
compound,measurement,setting,value
CCCCCCC(Sc1nc(Cl)cc(Nc2nc(-c3ccc(C(=O)O)cc3)cs2)n1)C(=O)O (centres unmarked) [compound 21],FP assay result (normalised FP signal),GABARAPL2; log10 concentration [M] -3.5,15.4589 and 21.9002 and 32.8502 and 25.1208
same,FP assay result (normalised FP signal),GABARAPL2; log10 concentration [M] -4,44.4444 and 43.8003 and 53.7842 and 57.0048
same,FP assay result (normalised FP signal),GABARAPL2; log10 concentration [M] -4.5,73.752 and 73.1079 and 75.0403 and 77.2947
same,FP assay result (normalised FP signal),GABARAPL2; log10 concentration [M] -5,94.686 and 90.8213 and 95.0081 and 104.992
same,FP assay result (normalised FP signal),GABARAPL2; log10 concentration [M] -5.5,97.2625 and 94.0419 and 105.958 and 102.093
same,FP assay result (normalised FP signal),GABARAPL2; log10 concentration [M] -6,96.2963 and 93.0757 and 104.026 and 99.5169
same,FP assay result (normalised FP signal),GABARAPL2; log10 concentration [M] -6.5,86.9565 and 89.8551 and 99.1948 and 93.0757
same,FP assay result (normalised FP signal),GABARAPL2; log10 concentration [M] -7,90.4992 and 100.483 and 104.992 and 96.9404
same,FP assay result (normalised FP signal),GABARAPL2; log10 concentration [M] -7.5,99.839 and 95.9742 and 100.161 and 104.026
same,FP assay result (normalised FP signal),GABARAPL2; log10 concentration [M] -8,94.686 and 94.3639 and 101.127 and 98.5507
same,FP assay result (normalised FP signal),GABARAPL2; log10 concentration [M] -8.5,91.4654 and 99.5169 and 96.2963 and 101.127
same,FP assay result (normalised FP signal),GABARAPL1; log10 concentration [M] -3.5,12.2578 and 12.5396 and 10.1444 and 7.186
same,FP assay result (normalised FP signal),GABARAPL1; log10 concentration [M] -4,30.4333 and 31.4195 and 29.5879 and 26.0655
same,FP assay result (normalised FP signal),GABARAPL1; log10 concentration [M] -4.5,65.2342 and 56.9215 and 57.9077 and 55.9352
same,FP assay result (normalised FP signal),GABARAPL1; log10 concentration [M] -5,92.9905 and 91.2998 and 95.2448 and 93.4132
same,FP assay result (normalised FP signal),GABARAPL1; log10 concentration [M] -5.5,96.2311 and 98.3445 and 98.9081 and 98.7672
same,FP assay result (normalised FP signal),GABARAPL1; log10 concentration [M] -6,98.6263 and 98.7672 (2×) and 99.1899
same,FP assay result (normalised FP signal),GABARAPL1; log10 concentration [M] -6.5,96.2311 and 93.5541 and 95.6675 and 93.2723
same,FP assay result (normalised FP signal),GABARAPL1; log10 concentration [M] -7,99.049 and 98.3445 and 97.64 and 97.4991
same,FP assay result (normalised FP signal),GABARAPL1; log10 concentration [M] -7.5,101.021 and 101.867 and 99.049 and 98.0627
same,FP assay result (normalised FP signal),GABARAPL1; log10 concentration [M] -8,97.0764 and 96.0902 (2×) and 101.162
same,FP assay result (normalised FP signal),GABARAPL1; log10 concentration [M] -8.5,95.6675 and 98.9081 and 96.9355 and 97.3582
same,FP assay result (normalised FP signal),LC3C; log10 concentration [M] -3.5,19.6537 and 17.9691 and 15.5358 and 11.7922
same,FP assay result (normalised FP signal),LC3C; log10 concentration [M] -4,50.5381 and 45.8587 and 48.6664 and 46.0459
same,FP assay result (normalised FP signal),LC3C; log10 concentration [M] -4.5,71.5021 and 72.0636 and 76.3687 and 74.6841
same,FP assay result (normalised FP signal),LC3C; log10 concentration [M] -5,93.0276 and 94.7122 and 94.8994 and 95.6481
same,FP assay result (normalised FP signal),LC3C; log10 concentration [M] -5.5,93.7763 and 94.3379 and 97.5199 and 95.8353
same,FP assay result (normalised FP signal),LC3C; log10 concentration [M] -6,96.0225 and 101.076 and 101.638 and 98.4558
same,FP assay result (normalised FP signal),LC3C; log10 concentration [M] -6.5,90.0328 and 92.0917 and 90.5943 and 93.2148
same,FP assay result (normalised FP signal),LC3C; log10 concentration [M] -7,99.2045 and 96.9584 and 97.5199 and 97.8942
same,FP assay result (normalised FP signal),LC3C; log10 concentration [M] -7.5,99.9532 and 98.8301 and 99.3917 and 101.825
same,FP assay result (normalised FP signal),LC3C; log10 concentration [M] -8,96.2096 and 99.0173 and 101.263 and 99.2045
same,FP assay result (normalised FP signal),LC3C; log10 concentration [M] -8.5,94.3379 and 96.2096 and 95.0866 and 96.0225
same,FP assay result (normalised FP signal),GABARAP; log10 concentration [M] -3.5,6.476 and 7.14 and 8.634 and 10.7929
same,FP assay result (normalised FP signal),GABARAP; log10 concentration [M] -4,22.9141 and 19.9253 and 28.8917 and 24.7406
same,FP assay result (normalised FP signal),GABARAP; log10 concentration [M] -4.5,50.1453 and 47.6546 and 52.4699 and 48.8169
same,FP assay result (normalised FP signal),GABARAP; log10 concentration [M] -5,88.9996 and 85.5127 and 92.3205 and 91.9884
same,FP assay result (normalised FP signal),GABARAP; log10 concentration [M] -5.5,94.6451 and 91.9884 and 100.623 and 97.7999
same,FP assay result (normalised FP signal),GABARAP; log10 concentration [M] -6,98.298 and 99.6264 and 101.287 and 99.7924
same,FP assay result (normalised FP signal),GABARAP; log10 concentration [M] -6.5,94.479 and 92.8186 and 96.6376 and 97.7999
same,FP assay result (normalised FP signal),GABARAP; log10 concentration [M] -7,96.3055 and 97.7999 and 100.955 and 96.9697
same,FP assay result (normalised FP signal),GABARAP; log10 concentration [M] -7.5,97.3018 (2×) and 101.453 and 101.785
same,FP assay result (normalised FP signal),GABARAP; log10 concentration [M] -8,99.9585 and 97.966 and 101.619 and 100.457
same,FP assay result (normalised FP signal),GABARAP; log10 concentration [M] -8.5,96.1395 and 97.7999 and 97.966 and 99.2943

# From publication PMC11589570, “Critical assessment of LC3/GABARAP ligands used for degrader development and ligandability of LC3/GABARAP binding pockets” (Nature Communications, 2024)
